Reference: ChEMBL document CHEMBL1136439, “Synthesis and bioactivities of nitronyl nitroxide and RGD containing pseudopeptides” (2003)
Where a SMILES comes first, the peptide text is derived from it. The star is where a group is joined. X1 = CC1(C)N(O)C(c2ccc(OCC(=O)*)cc2)=[N+]([O-])C1(C)C

What was measured:
Oryctolagus cuniculus [1] = species: Oryctolagus cuniculus; experiment: Maximum rate of ADP induced platelet aggregation was determined in rabbit blood at a dose of 10-5 mol/L (in vitro); format: functional
Oryctolagus cuniculus [2] = species: Oryctolagus cuniculus; experiment: Maximum rate of ADP induced platelet aggregation was determined in rabbit blood at a dose of 10-6 mol/L (in vitro); format: functional
Oryctolagus cuniculus [3] = species: Oryctolagus cuniculus; experiment: Maximum rate of ADP induced platelet aggregation was determined in rabbit blood at a dose of 10-7 mol/L (in vitro); format: functional
Oryctolagus cuniculus [4] = species: Oryctolagus cuniculus; experiment: Maximum rate of PAF induced platelet aggregation was determined in rabbit blood at a dose of 10-5 mol/L (in vitro); format: functional
Oryctolagus cuniculus [5] = species: Oryctolagus cuniculus; experiment: Maximum rate of PAF induced platelet aggregation was determined in rabbit blood at a dose of 10-6 mol/L (in vitro); format: functional
Oryctolagus cuniculus [6] = species: Oryctolagus cuniculus; experiment: Maximum rate of PAF induced platelet aggregation was determined in rabbit blood at a dose of 10-7 mol/L (in vitro); format: functional
Rattus norvegicus [7] = experiment: Effect on the dry thrombus weight in male wistar rat was determined(in vivo); format: functional
Rattus norvegicus [8] = experiment: Effect on the wet thrombus weight in male wistar rat was determined(in vivo); format: functional; design: unit not given beside the values
Rattus norvegicus [9] = species: Rattus norvegicus; experiment: Compound tested for inhibition of Ach-induced vasorelaxation was determined in rat aortic strips; format: functional, Aorta; design: concentration or dose not given beside the values

| SMILES | Am (Oryctolagus cuniculus [1]) | Am (Oryctolagus cuniculus [2]) | Am (Oryctolagus cuniculus [3]) | Am (Oryctolagus cuniculus [4]) | Am (Oryctolagus cuniculus [5]) | Am (Oryctolagus cuniculus [6]) | Activity (Rattus norvegicus [7]) | Activity (Rattus norvegicus [8]) | Inhibition (Rattus norvegicus [9]) |
| --- | --- | --- | --- | --- | --- | --- | --- | --- | --- |
| CC1(C)N(O)C(c2ccc(OCC(=O)O)cc2)=[N+]([O-])C1(C)C | 51.6% | 51.96% | 54.68% | 52.92% | 52.98% | 54.25% | 6.17 | 38.1 | 99.2% |
| CC(C)[C@H](NC(=O)[C@H](CC(=O)O)NC(=O)CNC(=O)[C@@H](N)CCCNC(=N)N)C(=O)O (H-RGDV-OH) | 12.07% | 28.9% | 50.06% | 20.5% | 35.11% | 52.66% | 5.13 | 32.62 | 2.4% |
| CC1(C)N(O)C(c2ccc(OCC(=O)N[C@@H](CCCN=C(N)N)C(=O)NCC(=O)N[C@@H](CC(=O)O)C(=O)N[C@@H](Cc3ccccc3)C(=O)O)cc2)=[N+]([O-])C1(C)C (X1-RGDF-OH) | 10.21% | 20.66% | 35.25% | 9.98% | 24.26% | 50.02% | 3.16 | 24.3 | 88.9% |
| CC(=O)Oc1ccccc1C(=O)O [ASPIRIN] | 30.01% | 42.58% | 54.89% | 29.99% | 36.98% | 53.42% | 3.99 | 28.11 | – |
| CC(C)[C@H](NC(=O)[C@H](CC(=O)O)NC(=O)CNC(=O)[C@H](CCCN=C(N)N)NC(=O)COc1ccc(C2=[N+]([O-])C(C)(C)C(C)(C)N2O)cc1)C(=O)O (X1-RGDV-OH) | 11.85% | 24.99% | 49.98% | 20.45% | 33.22% | 50.88% | 4.07 | 29.49 | 91.2% |
| N=C(N)NCCC[C@H](N)C(=O)NCC(=O)N[C@@H](CC(=O)O)C(=O)N[C@@H](CO)C(=O)O | 17.02% | 40.14% | 53.55% | 22.66% | 37.1% | 54.21% | 6.68 | 36.96 | 3.2% |
| N=C(N)NCCC[C@H](N)C(=O)NCC(=O)N[C@@H](CC(=O)O)C(=O)N[C@@H](Cc1ccccc1)C(=O)O (H-RGDF-OH) | 10.13% | 24.15% | 33.76% | 10.22% | 25.18% | 51.88% | 3.94 | 25.61 | 2.6% |
| CC1(C)N(O)C(c2ccc(OCC(=O)N[C@@H](CCCN=C(N)N)C(=O)NCC(=O)N[C@@H](CC(=O)O)C(=O)N[C@@H](CO)C(=O)O)cc2)=[N+]([O-])C1(C)C (X1-RGDS-OH) | 16.91% | 40.05% | 51.46% | 22.05% | 35.11% | 52.1% | 5.08 | 32.09 | 88.9% |
